Assay results taken from patent publication US20090012103A1, “SUBSTITUTED HETEROCYCLIC COMPOUNDS” (priority 2007, published 2009).
Where two headings read alike, the source gives them in different places.

Biological target: wild-type human cardiac sodium channel, hNav1.5 (Homo sapiens, UniProt Q14524)
Experiment: Late INa screening assay (late sodium current, PatchXpress whole cell patch clamp)
Format: cell-based
Conditions: read-out: Late INa % blk
Experimental: The late sodium current (Late INa) and peak sodium current (Peak INa) assays are performed on an automated electrophysiology platform, PatchXpress 7000A (MDS Analytical Technologies, Sunnyvale, Calif.), which uses the whole cell patch clamp technique to measure currents through the cell membrane of up to 16 cells at a time. The assay uses an HEK293 (human embryonic kidney) cell line heterologously expressing the wild-type human cardiac sodium channel, hNav1.5, purchased from Millipore (Billerica, Mass.). No beta subunits were coexpressed with the Na channel alpha subunit. […] Experiments are carried out at 24-27° C.
For both the Late INa and Peak INa assays, series resistance compensation is set to 50% and whole-cell compensation is performed automatically. […] Currents through open sodium channels are automatically recorded and stored in the DataXpress2 database (MDS Analytical Technologies, Sunnyvale, Calif.). Analysis is performed using DataXpress2 analysis software and data are compiled in Excel.
Compound stocks are routinely made in glass vials to 10 mM in dimethyl sulfoxide (DMSO). In some cases, when compounds are not soluble in DMSO, they are made in 100% ethanol. Stocks are sonicated as necessary. The extracellular solution for screening Late INa is composed of: 140 mM NaCl, 4 mM KCl, 1.8 mM CaCl2, 0.75 mM MgCl2, and 5 mM HEPES with pH adjusted to 7.4 using NaOH. The extracellular solution for screening Peak INa is composed of: 20 mM NaCl, 120 mM N-methyl-D glucamine, 4 mM KCl, 1.8 mM CaCl2, 0.75 mM MgCl2, and 5 mM HEPES with pH adjusted to 7.4 using HCl. The intracellular solution used to perfuse the inside of the cells for both the Late INa and Peak INa assays contains: 120 mM CsF, 20 mM CsCl, 5 mM EGTA, 5 mM HEPES and pH adjusted to 7.4 with CsOH. Compounds are diluted in extracellular solution to 10 μM in glass vials and then transferred to glass well plates before robotic addition to the cells. The 0 Na extracellular solution used at the end of each experiment for the Late INa and Peak INa assays to measure baseline current contains: 140 mM N-methyl-D-glucamine; 4 mM KCl; 1.8 mM CaCl2; 0.75 mM MgCl2; 5 mM HEPES and pH was adjusted to 7.4 with HCl.
For the Late INa assay, sodium channels are activated every 10 seconds (0.1 Hz) by depolarizing the cell membrane to −20 mV for 250 milliseconds (ms) from a holding potential of −120 mV.
All compounds are tested to determine their activity in blocking the late sodium current. Late INa current is generated by adding 10 μM Tefluthrin (pyrethroid) to the extracellular solution while recording Na currents. […] For some experiments, 50 nM ATX II (sea anemone toxin), another late INa activator, was used to generate the late component. […] Baseline current in the absence of Na^+ ions is measured at the end of each experiment (after two additions of 0 Na solution-see above) and is used to calculate the percent block by compound.

Chain of wild-type human cardiac sodium channel, hNav1.5 (Q14524 whole entry): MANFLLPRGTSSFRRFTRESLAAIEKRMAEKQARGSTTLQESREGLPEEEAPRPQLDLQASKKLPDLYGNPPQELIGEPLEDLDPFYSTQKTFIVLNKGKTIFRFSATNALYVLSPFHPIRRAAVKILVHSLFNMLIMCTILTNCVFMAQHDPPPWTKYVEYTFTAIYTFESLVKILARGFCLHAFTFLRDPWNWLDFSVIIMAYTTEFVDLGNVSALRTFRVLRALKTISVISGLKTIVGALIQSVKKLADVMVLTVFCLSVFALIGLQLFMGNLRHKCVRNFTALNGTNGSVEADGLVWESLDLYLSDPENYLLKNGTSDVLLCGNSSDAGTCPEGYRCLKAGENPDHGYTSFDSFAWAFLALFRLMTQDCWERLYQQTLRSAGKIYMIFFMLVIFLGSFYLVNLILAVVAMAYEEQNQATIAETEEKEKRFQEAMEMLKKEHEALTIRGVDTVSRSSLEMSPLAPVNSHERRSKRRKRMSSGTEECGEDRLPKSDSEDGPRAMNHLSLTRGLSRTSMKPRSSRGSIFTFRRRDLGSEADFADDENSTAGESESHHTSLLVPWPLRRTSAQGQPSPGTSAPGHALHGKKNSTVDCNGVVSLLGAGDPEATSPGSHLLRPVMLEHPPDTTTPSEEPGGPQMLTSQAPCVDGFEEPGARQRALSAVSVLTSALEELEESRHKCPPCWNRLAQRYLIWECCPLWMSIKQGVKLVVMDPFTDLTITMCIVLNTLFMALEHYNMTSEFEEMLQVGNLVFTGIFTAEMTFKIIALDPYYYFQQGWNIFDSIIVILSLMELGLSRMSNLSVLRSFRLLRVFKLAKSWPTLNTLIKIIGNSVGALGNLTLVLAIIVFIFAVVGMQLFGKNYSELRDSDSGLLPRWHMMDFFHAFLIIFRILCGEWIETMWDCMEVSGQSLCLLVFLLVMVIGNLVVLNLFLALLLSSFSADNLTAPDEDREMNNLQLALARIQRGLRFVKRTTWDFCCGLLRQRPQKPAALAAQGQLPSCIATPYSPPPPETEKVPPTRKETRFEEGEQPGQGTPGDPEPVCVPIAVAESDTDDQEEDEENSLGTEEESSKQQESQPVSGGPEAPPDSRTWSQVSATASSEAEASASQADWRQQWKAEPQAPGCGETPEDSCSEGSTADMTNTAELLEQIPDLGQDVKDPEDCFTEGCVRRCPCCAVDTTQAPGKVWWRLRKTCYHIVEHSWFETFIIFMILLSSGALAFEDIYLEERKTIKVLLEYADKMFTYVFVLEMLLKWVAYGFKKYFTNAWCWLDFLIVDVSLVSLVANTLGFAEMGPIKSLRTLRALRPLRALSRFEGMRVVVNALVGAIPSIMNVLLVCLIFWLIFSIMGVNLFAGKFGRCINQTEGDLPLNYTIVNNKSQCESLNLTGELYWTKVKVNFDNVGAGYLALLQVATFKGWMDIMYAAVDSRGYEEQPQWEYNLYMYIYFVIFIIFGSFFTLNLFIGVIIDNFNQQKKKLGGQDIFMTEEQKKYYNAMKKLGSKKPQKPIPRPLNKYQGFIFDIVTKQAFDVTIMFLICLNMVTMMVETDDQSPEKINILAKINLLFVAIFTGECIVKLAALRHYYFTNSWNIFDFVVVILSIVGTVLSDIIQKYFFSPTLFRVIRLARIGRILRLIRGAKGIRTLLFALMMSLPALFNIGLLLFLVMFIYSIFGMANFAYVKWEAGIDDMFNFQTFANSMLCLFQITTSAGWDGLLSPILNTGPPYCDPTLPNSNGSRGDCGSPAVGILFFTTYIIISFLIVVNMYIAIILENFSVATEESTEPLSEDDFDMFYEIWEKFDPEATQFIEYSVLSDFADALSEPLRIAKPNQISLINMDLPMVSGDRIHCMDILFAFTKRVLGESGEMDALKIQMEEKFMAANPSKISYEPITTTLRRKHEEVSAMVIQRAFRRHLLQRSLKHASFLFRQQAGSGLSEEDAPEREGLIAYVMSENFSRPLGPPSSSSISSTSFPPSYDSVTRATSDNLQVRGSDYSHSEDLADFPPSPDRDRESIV

| SMILES | inhibition at 10 µM | inhibition at 10 µM (compound at 10 μM) |
| --- | --- | --- |
| CC1=C(C(=O)OC2CCCc3ccccc32)C(c2cccc3ccccc23)n2nnnc2N1 (stereo not drawn) [PT-001, 1,2,3,4-tetrahydronaphthalen-1-yl 5-methyl-7-(naphthalen-1-yl)-4,7-dihydrotetrazolo[1,5-a]pyrimidine-6-carboxylate] | 28.8% |  |
| CC1=C(C(=O)OCc2ccc(Oc3ccccc3)cc2)C(c2cccc3ccccc23)n2nnnc2N1 (stereo not drawn) [PT-003, 4-phenoxybenzyl 5-methyl-7-(naphthalen-1-yl)-4,7-dihydrotetrazolo[1,5-a]pyrimidine-6-carboxylate] |  | 14.5% |
| CC1=C(C(=O)OCc2ccc(-c3ccccc3)cc2)C(c2cccc3ccccc23)n2nnnc2N1 (stereo not drawn) [PT-004, biphenyl-4-ylmethyl 5-methyl-7-(naphthalen-1-yl)-4,7-dihydrotetrazolo[1,5-a]pyrimidine-6-carboxylate] |  | 25.5% |
| CC1=C(C(=O)OCc2ccccc2-c2ccccc2)C(c2cccc3ccccc23)n2nnnc2N1 (stereo not drawn) [PT-005, biphenyl-2-ylmethyl 5-methyl-7-(naphthalen-1-yl)-4,7-dihydrotetrazolo[1,5-a]pyrimidine-6-carboxylate] |  | 25.4% |
| CC1=C(C(=O)OCc2cccc(-c3ccccc3)c2)C(c2cccc3ccccc23)n2nnnc2N1 (stereo not drawn) [PT-006, biphenyl-3-ylmethyl 5-methyl-7-(naphthalen-1-yl)-4,7-dihydrotetrazolo[1,5-a]pyrimidine-6-carboxylate] |  | 5.4% |
| CC1=C(C(=O)OC(c2ccc(F)cc2)c2ccc(F)cc2)C(c2cccc3ccccc23)n2nnnc2N1 (stereo not drawn) [PT-007, bis(4-fluorophenyl)methyl 5-methyl-7-(naphthalen-1-yl)-4,7-dihydrotetrazolo[1,5-a]pyrimidine-6-carboxylate] |  | 44% |
| CCOC(=O)C1=C(C(F)(F)F)Nc2nnnn2C1c1cccc2ccccc12 (stereo not drawn) [PT-009, ethyl 7-(naphthalen-1-yl)-5-(trifluoromethyl)-4,7-dihydrotetrazolo[1,5-a]pyrimidine-6-carboxylate] |  | 8.2% |
| CCOC(=O)C1=C(CC)Nc2nnnn2C1c1ccc2ccccc2c1 (stereo not drawn) [PT-011, ethyl 5-ethyl-7-(naphthalen-2-yl)-4,7-dihydrotetrazolo[1,5-a]pyrimidine-6-carboxylate] |  | 37.7% |
| CCOC(=O)C1=C(C(C)C)Nc2nnnn2C1c1ccc2ccccc2c1 (stereo not drawn) [PT-012, ethyl 5-isopropyl-7-(naphthalen-2-yl)-4,7-dihydrotetrazolo[1,5-a]pyrimidine-6-carboxylate] |  | 40.1% |
| CCOC(=O)C1=C(C(C)C)Nc2nnnn2C1c1cccc2ccccc12 (stereo not drawn) [PT-013, ethyl 5-isopropyl-7-(naphthalen-1-yl)-4,7-dihydrotetrazolo[1,5-a]pyrimidine-6-carboxylate] | 45.4% |  |
| CCOC(=O)C1=C(C)N(C)c2nnnn2C1c1cccc2ccccc12 (stereo not drawn) [PT-015, ethyl 4,5-dimethyl-7-(naphthalen-1-yl)-4,7-dihydrotetrazolo[1,5-a]pyrimidine-6-carboxylate] |  | 27.2% |
| CCOC(=O)C1=C(C(F)(F)F)Nc2nnnn2C1c1cccs1 (stereo not drawn) [PT-016, ethyl 7-(thiophen-2-yl)-5-(trifluoromethyl)-4,7-dihydrotetrazolo[1,5-a]pyrimidine-6-carboxylate] |  | 30.7% |
| CC1=C(C(=O)OC(C)C)C(c2ccc3ccccc3c2)n2nnnc2N1 (stereo not drawn) [PT-020, isopropyl 5-methyl-7-(naphthalen-2-yl)-4,7-dihydrotetrazolo[1,5-a]pyrimidine-6-carboxylate] |  | 47.7% |
| CC1=C(C(=O)OC(C)(C)C)C(c2ccc3ccccc3c2)n2nnnc2N1 (stereo not drawn) [PT-022, tert-butyl 5-methyl-7-(naphthalen-2-yl)-4,7-dihydrotetrazolo[1,5-a]pyrimidine-6-carboxylate] |  | 26% |
| CC1=C(C(=O)OC(C)(C)C)C(c2cccc3ccccc23)n2nnnc2N1 (stereo not drawn) [PT-023, tert-butyl 5-methyl-7-(naphthalen-1-yl)-4,7-dihydrotetrazolo[1,5-a]pyrimidine-6-carboxylate] |  | 32.8% |
| CC1=C(C(=O)OCc2ccccc2)C(c2cccc(Oc3ccccc3)c2)n2nnnc2N1 (stereo not drawn) [PT-024, benzyl 5-methyl-7-(3-phenoxyphenyl)-4,7-dihydrotetrazolo[1,5-a]pyrimidine-6-carboxylate] | 72.6% |  |
| CC1=C(C(=O)OCc2ccccc2)C(c2cccc(-c3ccccc3)c2)n2nnnc2N1 (stereo not drawn) [PT-026, benzyl 7-(biphenyl-3-yl)-5-methyl-4,7-dihydrotetrazolo[1,5-a]pyrimidine-6-carboxylate] |  | 10.3% |
| CC1=C(C(=O)OCc2ccccc2)C(c2ccc3ccccc3c2)n2nnnc2N1 (stereo not drawn) [PT-028, benzyl 5-methyl-7-(naphthalen-2-yl)-4,7-dihydrotetrazolo[1,5-a]pyrimidine-6-carboxylate] |  | 23.1% |
| CC1=C(C(=O)OCc2ccc(I)cc2)C(c2cccc3ccccc23)n2nnnc2N1 (stereo not drawn) [PT-029, 4-iodobenzyl 5-methyl-7-(naphthalen-1-yl)-4,7-dihydrotetrazolo[1,5-a]pyrimidine-6-carboxylate] |  | 52.1% |
| CC1=C(C(=O)OCc2ccccc2)C(c2ccc(C)c3ccccc23)n2nnnc2N1 (stereo not drawn) [PT-031, benzyl 5-methyl-7-(4-methylnaphthalen-1-yl)-4,7-dihydrotetrazolo[1,5-a]pyrimidine-6-carboxylate] |  | 28.6% |
| COc1ccc2c(C3C(C(=O)OCc4ccccc4)=C(C)Nc4nnnn43)ccc(OC)c2c1 (stereo not drawn) [PT-033, benzyl 7-(4,6-dimethoxynaphthalen-1-yl)-5-methyl-4,7-dihydrotetrazolo[1,5-a]pyrimidine-6-carboxylate] |  | 23.3% |
| CC1=C(C(=O)OCc2ccccc2)C(c2ccc3c(c2)OCCO3)n2nnnc2N1 (stereo not drawn) [PT-035, benzyl 7-(2,3-dihydrobenzo[b][1,4]dioxin-6-yl)-5-methyl-4,7-dihydrotetrazolo[1,5-a]pyrimidine-6-carboxylate] |  | 44% |
| CC1=C(C(=O)OCc2ccccc2)C(c2cccc3c2OCCO3)n2nnnc2N1 (stereo not drawn) [PT-036, benzyl 7-(2,3-dihydrobenzo[b][1,4]dioxin-5-yl)-5-methyl-4,7-dihydrotetrazolo[1,5-a]pyrimidine-6-carboxylate] |  | 41% |
| CC1=C(C(=O)OCc2ccccc2)C(c2cccc3cccnc23)n2nnnc2N1 (stereo not drawn) [PT-037, benzyl 5-methyl-7-(quinolin-8-yl)-4,7-dihydrotetrazolo[1,5-a]pyrimidine-6-carboxylate] |  | 34.4% |
| CC1=C(C(=O)OCc2ccccc2)C(c2cccc3ncccc23)n2nnnc2N1 (stereo not drawn) [PT-038, benzyl 5-methyl-7-(quinolin-5-yl)-4,7-dihydrotetrazolo[1,5-a]pyrimidine-6-carboxylate] |  | 11.9% |
| CC1=C(C(=O)OCc2ccccc2)C(c2ccsc2)n2nnnc2N1 (stereo not drawn) [PT-041, benzyl 5-methyl-7-(thiophen-3-yl)-4,7-dihydrotetrazolo[1,5-a]pyrimidine-6-carboxylate] |  | 41.4% |
| CC1=C(C(=O)OCc2ccccc2)C(c2cc3ccccc3s2)n2nnnc2N1 (stereo not drawn) [PT-043, benzyl 7-(benzo[b]thiophen-2-yl)-5-methyl-4,7-dihydrotetrazolo[1,5-a]pyrimidine-6-carboxylate] |  | 53.8% |
| CC1=C(C(=O)OCc2ccc(C#N)cc2)C(c2cccc3ccccc23)n2nnnc2N1 (stereo not drawn) [PT-046, 4-cyanobenzyl 5-methyl-7-(naphthalen-1-yl)-4,7-dihydrotetrazolo[1,5-a]pyrimidine-6-carboxylate] |  | 67% |
| CC1=C(C(=O)O[C@@H](C)c2ccccc2)[C@H](c2cccc3ccccc23)n2nnnc2N1 [PT-049, (S)-((S)-1-phenylethyl) 5-methyl-7-(naphthalen-1-yl)-4,7-dihydrotetrazolo[1,5-a]pyrimidine-6-carboxylate] |  | 35.4% |
| CC1=C(C(=O)OCc2ccc(OC(F)(F)F)cc2)C(c2cccc3ccccc23)n2nnnc2N1 (stereo not drawn) [PT-052, 4-(trifluoromethoxy)benzyl 5-methyl-7-(naphthalen-1-yl)-4,7-dihydrotetrazolo[1,5-a]pyrimidine-6-carboxylate] |  | 9.1% |
